Results from ChEMBL document CHEMBL1128117, “Dibenzobicyclo[2.2.2.]octane angiotensin II receptor antagonists” (Bioorg Med Chem Lett, 1995).

Key:
Angiotensin II receptor [1] = target: T1, Angiotensin II receptor (Homo sapiens, UniProt P30556+P50052); assay: Inhibitory activity against Angiotensin II receptor; format: protein assay
T1 sequence (P30556 whole entry): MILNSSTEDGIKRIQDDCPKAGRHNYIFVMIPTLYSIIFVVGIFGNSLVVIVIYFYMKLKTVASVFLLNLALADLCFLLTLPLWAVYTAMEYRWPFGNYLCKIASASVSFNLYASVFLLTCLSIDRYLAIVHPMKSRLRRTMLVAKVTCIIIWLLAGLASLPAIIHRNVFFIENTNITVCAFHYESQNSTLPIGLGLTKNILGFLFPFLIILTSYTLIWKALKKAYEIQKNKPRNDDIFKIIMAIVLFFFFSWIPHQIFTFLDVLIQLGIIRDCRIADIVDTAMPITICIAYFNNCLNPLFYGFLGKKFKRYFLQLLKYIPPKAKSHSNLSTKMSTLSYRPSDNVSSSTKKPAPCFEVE
T1 sequence (P50052 whole entry): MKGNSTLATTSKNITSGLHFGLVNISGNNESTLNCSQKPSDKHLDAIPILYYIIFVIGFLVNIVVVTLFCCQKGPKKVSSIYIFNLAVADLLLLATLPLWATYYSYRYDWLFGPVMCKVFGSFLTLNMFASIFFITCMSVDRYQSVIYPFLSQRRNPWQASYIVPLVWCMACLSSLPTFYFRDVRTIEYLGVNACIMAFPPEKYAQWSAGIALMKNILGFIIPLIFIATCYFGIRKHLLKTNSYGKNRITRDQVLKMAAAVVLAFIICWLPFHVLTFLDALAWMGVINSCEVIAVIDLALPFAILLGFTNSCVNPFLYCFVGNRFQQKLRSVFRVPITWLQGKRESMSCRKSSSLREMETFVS

Rattus norvegicus [2] = assay: Dose required to lower the blood pressure by 30 mm Hg on intravenous administration in the renal hypertensive rat was determined; format: functional
Angiotensin II receptor [3] = target: T1, Angiotensin II receptor; assay: Inhibitory activity against Angiotensin II receptor was determined; format: protein assay
Rattus norvegicus [4] = assay: Dose required to lower the blood pressure by 30 mm Hg on intravenous administration in the renal hypertensive rat; orally inactive; format: functional

SMILES | IC50 (Angiotensin II receptor [1]) | also measured
CCCCc1nc(Cl)c(C=O)n1Cc1ccc2c(c1)C1c3ccccc3C2C(C(=O)O)C1C(=O)O (stereo in doubt; 5) | 220 nM | –
CCCCc1nc(Cl)c(CO)n1Cc1ccc(-c2ccccc2-c2nnn[nH]2)cc1 [LOSARTAN] | – | ED30 (Rattus norvegicus [2]): 0.8 mg/kg
CCCCc1nc(Cl)c(COC)n1Cc1ccc(N2C(=O)C3(C)CC(C)(C(=O)O)CC(C)(C3)C2=O)cc1 (stereo not drawn) | – | IC50 (Angiotensin II receptor [3]): > 10000 nM
CCCCc1nc(Cl)c(C=O)n1Cc1ccc2c(c1)C1c3ccccc3C2C(C(=O)O)C1C(=O)O (stereo in doubt) | 1100 nM | –
CCCCc1nc(Cl)c(C=O)n1Cc1ccc2c(c1)C(Cc1nn[nH]n1)c1ccccc1-2 (stereo not drawn) | 5000 nM | –
CCCCc1nc(Cl)c(C=O)n1Cc1ccc2c(c1)C1c3ccccc3C2C(C(=O)O)C1C(=O)O (stereo in doubt; 3) | 1100 nM | –
CCCCc1nc(Cl)c(C=O)n1Cc1ccc2c(c1)C1c3ccccc3C2C(c2nn[nH]n2)C1c1nn[nH]n1 (stereo not drawn) | 90 nM | ED30 (Rattus norvegicus [4]): 0.115 mg/kg
CCCCc1nc(Cl)c(C=O)n1Cc1ccc2c(c1)C(O)(C(=O)O)c1ccccc1-2 (stereo not drawn) | > 10000 nM | –
CCCCc1nc(Cl)c(C=O)n1Cc1ccc2c(c1)C(C(=O)O)c1ccccc1-2 (stereo not drawn) | 3600 nM | –
CCCCc1nc(Cl)c(C=O)n1Cc1ccc2c(c1)C1c3ccccc3C2C(C(=O)O)C1C(=O)O (single isomer, unassigned) | 320 nM | –
CCCCc1nc(Sc2ccccc2)c(C=O)n1Cc1ccc2c(c1)C1c3ccccc3C2C(c2nn[nH]n2)C1c1nn[nH]n1 (stereo not drawn) | 460 nM | ED30 (Rattus norvegicus [4]): 0.2 mg/kg
